Measurements taken from publication PMC7312762, “Acetylcholinesterase Inhibition of Diversely Functionalized Quinolinones for Alzheimer’s Disease Therapy” (International Journal of Molecular Sciences, 2020).
Read-outs that look alike come from different tables or passages of the source.

Key:
Assay type in all cases: biochemical
[1] = target: T1, human recombinant acetylcholinesterase (hrAChE) (Homo sapiens, UniProt P22303); experiment: hrAChE inhibition, Ellman method (screening and IC50); conditions: for hrAChE inhibition (screening, in words): screening at 1 and 10 µM; for IC50: mean ± standard error of the mean, triplicate determinations; for inhibition at 10 µM: read-out: hrAChE inhibition
T1 construct: made in house; host or cells: Hek293 derivatives (transient transfection, pcDNA3.4), collected from culture supernatant
Description: (§1) The hrAChE and hrBuChE were prepared as recombinant proteins at the University of Hradec Kralove. For their production, the mammalian expression system was used. Briefly, the DNA sequence encoding human AChE and BuChE was obtained from UniProtKB Server (www.uniprot.org, accession numbers: P22303 and P06276) and de novo synthesized as GeneArt Strings DNA fragments by GeneArt Gene Synthesis Service (Thermo Fisher Scientific, Pardubice, Czech Republic). The DNA fragments were PCR-amplified using gene-specific primers, adding the DNA sequence for C-terminal 6× His-tag. The amplicons were inserted into the mammalian pcDNA3.4 vector by TOPO cloning technology, and the final DNA constructs were verified by Sanger sequencing (ABI PRISM 3130xl). For protein expression, the DNA constructs were transiently transfected into Hek293 derivatives. Recombinant proteins were collected from culture supernatant 6 days later and stored at −80 °C for further purification.
(§2) The hrAChE and hrBuChE were purified using a NGC Medium-Pressure Chromatography System (Bio-Rad, USA). The total volume of 6–8 mL of medium containing secreted protein was desalted using 5 mL HiTrap Desalting column (GE Healthcare, Prague, Czech Republic) equilibrated with buffer A (20 mM sodium phosphate buffer, 150 mM NaCl, 15 mM imidazole, and 20% glycerol; pH 7.4). Acquired supernatant was loaded onto a 1 mL HisTrap FF column (GE Healthcare, Prague, Czech Republic) equilibrated with buffer A. Captured proteins were eluted with buffer B (20 mM sodium phosphate buffer, 150 mM NaCl, 500 mM imidazole, and 20% glycerol; pH 7.4). Imidazole was subsequently removed by repeated centrifugation in Amicon Ultra-4 (Ultracel-10K) tube (Merck Millipore). Protein concentration was determined by linearized Bradford method adapted for 96-well plate.
(§3) The catalytic activity of enzymes was determined by standard Ellman method adapted for 96-well plates. […]. The mixture was pre-incubated at 37 °C for 15 min, and subsequently substrate acetylthiocholine iodide (ATChI) or butyrylthiocholine iodide (BuTChI) was added to the final concentration of 1000 µM. The final volume of reaction was 100 µL. The product formed during the reaction 5-thio-2-nitrobenzoic acid (TNB) was determined by following its absorbance at 436 nm. The catalytic activity was evaluated as amount of product (%) formed by enzyme after 10 min of incubation at 37 °C. IC50 values of individual compounds were determined by non-linear regression using GraphPad Prism 7.

[2] = target: T2, human recombinant butyrylcholinesterase (hrBuChE) (Homo sapiens, UniProt P06276); experiment: hrBuChE inhibition, Ellman method (screening and IC50); conditions: for inhibition at 10 µM: at 10 µM concentration; for IC50: mean ± standard error of the mean, triplicate determinations
T2 construct: made in house; host or cells: Hek293 derivatives (transient transfection, pcDNA3.4), collected from culture supernatant
Description: as §1, §2, §3

hrAChE = target: T3, hrAChE (Homo sapiens, UniProt P22303); experiment: Inhibition kinetics of hrAChE (Lineweaver-Burk)
T3 construct: made in house; host or cells: Hek293 derivatives (transient transfection, pcDNA3.4), collected from culture supernatant
Description: Compound with the highest inhibition potential against hrAChE was further analysed regarding its inhibition kinetics parameters (inhibition mechanism and inhibitory constant). […]. Inhibition mechanism and kinetic constant were determined by non-linear regression and double reciprocal method by Lineweaver-Burk using GraphPad Prism 7.

T2 sequence (P06276 29-602): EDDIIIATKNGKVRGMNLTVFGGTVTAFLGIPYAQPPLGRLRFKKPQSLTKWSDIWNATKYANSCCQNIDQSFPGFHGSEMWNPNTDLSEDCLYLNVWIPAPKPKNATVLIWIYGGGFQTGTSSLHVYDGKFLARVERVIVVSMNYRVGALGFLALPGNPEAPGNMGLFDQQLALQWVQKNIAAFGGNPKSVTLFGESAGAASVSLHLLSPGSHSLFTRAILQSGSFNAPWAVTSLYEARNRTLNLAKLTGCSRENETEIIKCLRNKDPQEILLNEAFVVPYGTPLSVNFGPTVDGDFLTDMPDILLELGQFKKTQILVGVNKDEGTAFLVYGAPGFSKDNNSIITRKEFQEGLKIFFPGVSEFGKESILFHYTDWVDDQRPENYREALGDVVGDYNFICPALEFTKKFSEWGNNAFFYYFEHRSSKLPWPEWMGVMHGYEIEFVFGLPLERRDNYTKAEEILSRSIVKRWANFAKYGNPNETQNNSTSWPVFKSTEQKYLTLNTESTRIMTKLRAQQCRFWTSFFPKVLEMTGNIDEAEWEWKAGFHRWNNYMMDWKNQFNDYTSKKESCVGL
T1 sequence (P22303 32-614): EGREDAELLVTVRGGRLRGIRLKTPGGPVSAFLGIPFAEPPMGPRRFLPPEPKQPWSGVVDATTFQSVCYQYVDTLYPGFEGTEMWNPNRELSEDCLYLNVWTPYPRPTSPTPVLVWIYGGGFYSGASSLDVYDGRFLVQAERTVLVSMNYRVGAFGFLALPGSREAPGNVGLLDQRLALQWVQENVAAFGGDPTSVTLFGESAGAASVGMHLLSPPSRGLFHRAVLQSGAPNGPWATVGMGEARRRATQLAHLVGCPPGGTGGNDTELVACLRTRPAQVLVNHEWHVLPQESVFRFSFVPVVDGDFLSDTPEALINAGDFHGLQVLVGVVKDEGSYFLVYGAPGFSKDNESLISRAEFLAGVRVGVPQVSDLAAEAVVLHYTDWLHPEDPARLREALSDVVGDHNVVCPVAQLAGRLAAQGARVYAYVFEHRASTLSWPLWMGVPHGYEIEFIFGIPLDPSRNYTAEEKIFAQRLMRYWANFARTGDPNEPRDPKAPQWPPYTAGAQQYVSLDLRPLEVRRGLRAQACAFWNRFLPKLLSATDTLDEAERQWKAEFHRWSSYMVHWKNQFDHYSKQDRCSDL
T3 sequence (P22303 32-614): as above

Compound | hrAChE inhibition (screening, in words) [1] | inhibition at 10 µM [2] [%] | IC50 [2] [nM] | Selectivity Index IC50 (hrBuChE)/IC50 (hrAChE) [1] | IC50 [1] [nM] | inhibition at 10 µM [1] [%] | inhibition at 10 µM ([1]; at 10 µM concentration) [%] | type of hrAChE inhibition (hrAChE; kinetic experiments) | Ki (hrAChE; non-competitive inhibition, ATChI 25-2000 µM) [nM]
CN1CCN(CCCCOc2ccc3c(c2)NC(=O)CC3)CC1 [DQN3, 7-[4-(4-Methylpiperazin-1-yl)butoxy]-3,4-dihydroquinolin-2(1H)-one] | low inhibition percentage | – | – | – | – | – | – | – | –
CC(C)N1CCN(CCCCOc2ccc3c(c2)NC(=O)CC3)CC1 [DQN7, 7-[4-(4-Isopropylpiperazin-1-yl)butoxy]-3,4-dihydroquinolin-2(1H)-one] | – | 45 to 65 | 16700 ± 460 | 11 | 1580 ± 150 | 88 to 95 | – | – | –
CN1CCN(CCCCOc2ccc3ccc(=O)[nH]c3c2)CC1 [QN4, 7-[4-(4-Methylpiperazin-1-yl)butoxy]quinolin-2(1H)-one] | low inhibition percentage | – | – | – | – | – | – | – | –
CN1CCN(CCCCCOc2ccc3ccc(=O)[nH]c3c2)CC1 [QN5, 7-[5-(4-Methylpiperazin-1-yl)pentyloxy]quinolin-2(1H)-one] | low inhibition percentage | – | – | – | – | – | – | – | –
CC(C)N1CCN(CCCCOc2ccc3ccc(=O)[nH]c3c2)CC1 [QN8, 7-[4-(4-Isopropylpiperazin-1-yl)butoxy]quinolin-2(1H)-one] | – | 45 to 65 | 12700 ± 450 | 44 | 290 ± 20 | – | 88 to 95 | non-competitive | 79
CC(C)N1CCN(CCCCCOc2ccc3ccc(=O)[nH]c3c2)CC1 [QN9, 7-[5-(4-Isopropylpiperazin-1-yl)pentyloxy]quinolin-2(1H)-one] | – | 45 to 65 | 6700 ± 320 | 7 | 960 ± 40 | – | 88 to 95 | – | –
